pIC50: −log10 of the molar value. Where two headings read alike, the source gives them in different places. Numbered stars: 1 amine (or outer) side, 2 acyl side, 3 side chain; on linkers, the order of the positions; unused ones are H or OH. Bridge positions count the residues as written; N and C are the ends. Side chains are listed from the residue outwards. Peptide text beside a SMILES is read from it. * marks the point of attachment. C20 diacid = O=C(O)CCCCCCCCCCCCCCCCCCC(=O)*; γGlu = O=C(O)[C@H](CCC(=O)[*:2])N[*:1]
Experiments:
[1] = target: T1, rAMY3R (Rattus norvegicus, UniProt P32214+Q9JJ73); experiment: scintillation proximity binding assay, rAMY3R membranes; parameters: expressed in transfected cells; host or cells: BHK tk-ts 13, transient co-transfection (FuGENE 6); settings: for ratio rCTR/rAMY3R: ratio of binding IC50 values
T1 sequence (P32214 25-479 isoform P32214-2 limits assumed): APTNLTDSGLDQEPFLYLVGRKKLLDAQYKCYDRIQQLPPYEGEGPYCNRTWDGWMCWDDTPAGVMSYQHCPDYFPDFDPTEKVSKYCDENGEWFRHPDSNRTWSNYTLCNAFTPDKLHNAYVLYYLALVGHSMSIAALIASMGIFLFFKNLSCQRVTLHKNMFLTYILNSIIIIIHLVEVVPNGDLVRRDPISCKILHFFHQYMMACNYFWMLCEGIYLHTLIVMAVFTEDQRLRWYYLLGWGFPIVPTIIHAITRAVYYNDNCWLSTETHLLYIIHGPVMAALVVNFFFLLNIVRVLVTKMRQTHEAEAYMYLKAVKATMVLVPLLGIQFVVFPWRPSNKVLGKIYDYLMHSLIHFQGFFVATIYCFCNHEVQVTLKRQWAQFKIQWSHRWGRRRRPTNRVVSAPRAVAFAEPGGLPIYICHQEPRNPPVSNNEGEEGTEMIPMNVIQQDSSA
T1 sequence (Q9JJ73 23-147 partner): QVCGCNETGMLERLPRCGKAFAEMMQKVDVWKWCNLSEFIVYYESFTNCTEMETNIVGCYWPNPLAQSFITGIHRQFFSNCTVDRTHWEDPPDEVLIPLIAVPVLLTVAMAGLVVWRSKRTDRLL
Description: The apparent binding affinities were determined using a scintillation proximity assay with beads from PerkinElmer and cell membranes containing the AMY3R or CTRs. […] Membranes were harvested and membranes were prepared and kept at −80 °C until use. The assay was performed in a 384-well Optiplate (PerkinElmer). Membranes were mixed with scintillation proximity assay beads in a 1:1 ratio. […] Samples were analyzed on a TopCounter (Packard). The IC50 values were calculated using GraphPad Prism. See Supporting Information S7: SAR Screening Assay Methods (Binding Assays (Human and Rat)) for more information.
Binding Assays (Human and Rat). Brief descriptions of the methods used to determine binding affinities for SAR analysis are described below. Curves and IC50 values were plotted and calculated in GraphPad Prism using nonlinear regression (one site binding competition analysis), with pIC50 values […]
values were used to calculate the binding affinity ratios in order to express the selectivity of compounds for the AMY3R versus the CTR.
CTR Binding Assay. The binding assay was performed using scintillation proximity assay (SPA) beads (RPNQ0001) from PerkinElmer and cell membranes containing either the hCTR or rCTR. BHK […]
(§1) Membranes were prepared in the following way: the cells were rinsed with PBS and incubated with Versene for approximately 5 min before harvesting. The cells were flushed with PBS and the cell-suspension was centrifuged for 5 min at 1000 rpm. Cells were homogenized (Ultra Turrax) in a buffer […]
containing 20 mM Na-HEPES and 0.1 mM EDTA (pH 7.4, buffer 2). The resulting pellet was re-suspended in buffer 2 and protein concentration was measured (BCA protein assay, Pierce). The homogenate was kept cold during the whole procedure. The membranes were stored at –80 °C until […]
The binding assay was performed in a 384-well Optiplate (PerkinElmer) in a total volume of 40 μL.
Membranes were mixed with SPA beads in a 1:1 ratio. […]
mg/well. Test compounds were dissolved in DMSO and further diluted in assay buffer (50 mM HEPES, pH 7.4, 1 mM CaCl2, 5 mM MgCl2, 0.1% ovalbumin, and 0.02% Tween-20).
Calcitonin (NEX422 PerkinElmer) was dissolved in assay buffer and added to the Optiplate at a final […]
prior to centrifugation (1500 rpm, 10 min). Samples were analyzed on TopCounter (Packard).
AMY3R Binding Assay. The binding assay was performed using SPA beads (RPNQ0001) from PerkinElmer and cell membranes containing either the hAMY3R or rAMY3R. BHK tk-ts 13 cells were […]
as §1, with “and cultured as described above. Membranes” for “Membranes”, “buffer containing 20 mM Na-HEPES and 10 mM EDTA (pH 7.4), and” for “buffer”
The resulting pellet was re-suspended, homogenized, and
7.4, buffer 2). The resulting pellet was re-suspended in buffer 2 and protein concentration was measured (BCA protein assay, Pierce). The homogenate was kept cold during the whole procedure.
The membranes were stored at –80 °C until use.
Membranes were mixed with SPA beads in a 1:1 ratio. The final concentration of SPA beads was 0.05 mg/well. Test compounds were dissolved in DMSO and further diluted in assay buffer (50 mM […]
rAMY (NEX448 PerkinElmer) was dissolved in assay buffer and added to the Optiplate at a final

[2] = HMWP content by size-exclusion chromatography; type: physicochemical; settings: covalent dimers and polymers prior to fibril formation testing, SEC, % of total absorbance area at 215 nm
How it was run: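 HMWP percentage is the covalent dimer/polymer peak area relative to total absorbance area, with extinction coefficients taken as equal to the main peak. Isocratic size-exclusion elution used 50% (v/v) 2-propanol containing 0.5 M NaCl and phosphate buffer; measured on analogs prior to fibril assays.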

SMILES: CC[C@H](C)[C@H](NC(=O)[C@H](C)NC(=O)CNC(=O)[C@H](Cc1ccccc1)NC(=O)[C@H](CC(N)=O)NC(=O)[C@@H]1CCCN1C(=O)[C@H](CO)NC(=O)[C@H](CO)NC(=O)[C@H](Cc1c[nH]cn1)NC(=O)[C@H](CCCNC(=N)N)NC(=O)[C@H](CC(C)C)NC(=O)[C@H](Cc1ccccc1)NC(=O)[C@H](CC(=O)O)NC(=O)[C@H](C)NC(=O)[C@H](CC(C)C)NC(=O)[C@H](CCCNC(=N)N)NC(=O)[C@H](CCC(N)=O)NC(=O)[C@@H](NC(=O)[C@H](C)NC(=O)[C@@H]1CSSC[C@H](NC(=O)[C@@H](N)CCCCNC(=O)CC[C@H](NC(=O)CC[C@H](NC(=O)CCCCCCCCCCCCCCCCCCC(=O)O)C(=O)O)C(=O)O)C(=O)N[C@@H](CC(N)=O)C(=O)N[C@@H]([C@@H](C)O)C(=O)N[C@@H](C)C(=O)N[C@@H]([C@@H](C)O)C(=O)N1)[C@@H](C)O)C(=O)N1CCC[C@H]1C(=O)N[C@@H](CO)C(=O)N[C@@H](CO)C(=O)N[C@H](C(=O)N[C@@H](CC(N)=O)C(=O)N[C@H](C(=O)NCC(=O)N[C@@H](CO)C(=O)N[C@@H](CCCNC(=N)N)C(=O)N[C@H](C(=O)N[C@@H](Cc1ccc(O)cc1)C(N)=O)[C@@H](C)O)C(C)C)[C@@H](C)O [NN1213]
- ratio rCTR/rAMY3R [1]: 465
- HMWP ([2]; analogs 10–21 (pH 4.0 series)): 0.9%

SMILES: CC[C@H](C)[C@H](NC(=O)[C@@H]1CCCN1C(=O)CNC(=O)[C@H](Cc1ccccc1)NC(=O)[C@H](CC(N)=O)NC(=O)[C@@H]1CCCN1C(=O)[C@H](CO)NC(=O)[C@H](CO)NC(=O)[C@H](Cc1c[nH]cn1)NC(=O)[C@H](CCCNC(=N)N)NC(=O)[C@H](CC(C)C)NC(=O)[C@H](Cc1ccccc1)NC(=O)[C@H](CC(=O)O)NC(=O)[C@H](C)NC(=O)[C@H](CC(C)C)NC(=O)[C@H](CCCNC(=N)N)NC(=O)[C@H](CCC(N)=O)NC(=O)[C@@H](NC(=O)[C@H](C)NC(=O)[C@@H]1CSSC[C@H](NC(=O)[C@@H](N)CCCCNC(=O)CC[C@H](NC(=O)CC[C@H](NC(=O)CCCCCCCCCCCCCCCCCCC(=O)O)C(=O)O)C(=O)O)C(=O)N[C@@H](CC(N)=O)C(=O)N[C@@H]([C@@H](C)O)C(=O)N[C@@H](C)C(=O)N[C@@H]([C@@H](C)O)C(=O)N1)[C@@H](C)O)C(=O)N[C@@H](CC(C)C)C(=O)N[C@@H](CO)C(=O)N[C@@H](CO)C(=O)N[C@H](C(=O)N[C@@H](CC(N)=O)C(=O)N[C@H](C(=O)NCC(=O)N[C@@H](CO)C(=O)N[C@@H](CC(=O)O)C(=O)N[C@H](C(=O)N[C@@H](Cc1ccc(O)cc1)C(N)=O)[C@@H](C)O)C(C)C)[C@@H](C)O [Peptide 3] (H-K([γGlu-γGlu-C20 diacid])CNTATCATQRLADFLRHSSPNFGPILSSTNVGSDTY-NH2; disulfide 2-7)
- IC50 ([1]; SPA binding assay, Tables S13 and S15, read-out: rAMY3R pIC50 (converted)): 4.68 nM
- pIC50 ([1]; SPA, BHK cell membranes, 125I-rat amylin, 120 min 25 °C, read-out: rAMY3R IC50): 8.33
- ratio rCTR/rAMY3R [1]: 76
- HMWP ([2]; analogs 1–9 (pH 7.5 series)): 24%

SMILES: CC(C)C[C@H](NC(=O)[C@H](CCCNC(=N)N)NC(=O)[C@H](CCC(N)=O)NC(=O)[C@@H](NC(=O)[C@H](C)NC(=O)[C@@H]1CSSC[C@H](NC(=O)[C@@H](N)CCCCNC(=O)CC[C@H](NC(=O)CC[C@H](NC(=O)CCCCCCCCCCCCCCCCCCC(=O)O)C(=O)O)C(=O)O)C(=O)N[C@@H](CC(N)=O)C(=O)N[C@@H]([C@@H](C)O)C(=O)N[C@@H](C)C(=O)N[C@@H]([C@@H](C)O)C(=O)N1)[C@@H](C)O)C(=O)N[C@@H](C)C(=O)N[C@@H](CC(=O)O)C(=O)N[C@@H](Cc1ccccc1)C(=O)N[C@@H](CC(C)C)C(=O)N[C@@H](CCCNC(=N)N)C(=O)N[C@@H](Cc1c[nH]cn1)C(=O)N[C@@H](CO)C(=O)N[C@@H](CO)C(=O)N1CCC[C@H]1C(=O)N[C@@H](CC(N)=O)C(=O)N[C@@H](Cc1ccccc1)C(=O)NCC(=O)N[C@@H](C)C(=O)N1CCC[C@H]1C(=O)N[C@@H](CC(C)C)C(=O)N[C@@H](CO)C(=O)N[C@@H](CO)C(=O)N[C@H](C(=O)N[C@@H](CC(N)=O)C(=O)N[C@H](C(=O)NCC(=O)N[C@@H](CO)C(=O)N[C@@H](CC(=O)O)C(=O)N[C@H](C(=O)N[C@@H](Cc1ccc(O)cc1)C(N)=O)[C@@H](C)O)C(C)C)[C@@H](C)O [Peptide 5] (H-K([γGlu-γGlu-C20 diacid])CNTATCATQRLADFLRHSSPNFGAPLSSTNVGSDTY-NH2; disulfide 2-7)
- rAMY3R pIC50 ([1]; SPA binding assay, Tables S13 and S15): 8.89
- ratio rCTR/rAMY3R [1]: 81
- HMWP ([2]; analogs 1–9 (pH 7.5 series)): 7%

SMILES: CC[C@H](C)[C@H](NC(=O)[C@H](C)NC(=O)CNC(=O)[C@H](Cc1ccccc1)NC(=O)[C@H](CC(N)=O)NC(=O)[C@@H]1CCCN1C(=O)[C@H](CO)NC(=O)[C@H](CO)NC(=O)[C@H](Cc1c[nH]cn1)NC(=O)[C@H](CCCNC(=N)N)NC(=O)[C@H](CC(C)C)NC(=O)[C@H](Cc1ccccc1)NC(=O)[C@H](CC(=O)O)NC(=O)[C@H](C)NC(=O)[C@H](CC(C)C)NC(=O)[C@H](CCCNC(=N)N)NC(=O)[C@H](CCC(N)=O)NC(=O)[C@@H](NC(=O)[C@H](C)NC(=O)[C@@H]1CSSC[C@H](NC(=O)[C@@H](N)CCCCNC(=O)CC[C@H](NC(=O)CC[C@H](NC(=O)CCCCCCCCCCCCCCCCCCC(=O)O)C(=O)O)C(=O)O)C(=O)N[C@@H](CC(N)=O)C(=O)N[C@@H]([C@@H](C)O)C(=O)N[C@@H](C)C(=O)N[C@@H]([C@@H](C)O)C(=O)N1)[C@@H](C)O)C(=O)N1CCC[C@H]1C(=O)N[C@@H](CO)C(=O)N[C@@H](CO)C(=O)N[C@H](C(=O)N[C@@H](CC(N)=O)C(=O)N[C@H](C(=O)NCC(=O)N[C@@H](CO)C(=O)N[C@@H](CC(=O)O)C(=O)N[C@H](C(=O)N[C@@H](Cc1ccc(O)cc1)C(N)=O)[C@@H](C)O)C(C)C)[C@@H](C)O [Peptide 6] (H-K([γGlu-γGlu-C20 diacid])CNTATCATQRLADFLRHSSPNFGAIPSSTNVGSDTY-NH2; disulfide 2-7)
- ratio rCTR/rAMY3R [1]: 447
- HMWP ([2]; analogs 1–9 (pH 7.5 series)): 2.5%

Source: paper PMC11284788, “NN1213 – A Potent, Long-Acting, and Selective Analog of Human Amylin” (Journal of Medicinal Chemistry, 2024)
